The record followed here is patent US10233182B2, “Substituted spirocyclic inhibitors of autotaxin” (X-Rx, Inc., priority 2014, dated 2019).

Molecules are shown by their SMILES.

Broadly, the IC50 is the point on the concentration scale where inhibition reaches its midpoint.

In the experiment the target is Autotaxin (Homo sapiens (Human), UniProt Q13822). Description: Autotaxin LPC Cascade Assay. Format: biochemical. The settings on record: Autotaxin 5 nM, LPC 100 μM, choline oxidase/HRP/Ampliflu Red fluorescence read-out, 2% DMSO, RT; read-out: IC50 ATX Activity. Put shortly: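 Choline liberated from LPC by autotaxin during 1 h, after a 10-min RT compound preincubation, was converted through choline oxidase/HRP to a fluorescent Ampliflu Red product.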
`CC(C)[C@@H](NC(=O)c1cc(C(F)(F)F)ccc1F)C(=O)N1CCC2(CC1)C(=O)N(C)C(=O)N2Cc1ccc(F)cc1` [Example 90, (R)-2-Fluoro-N-(1-(1-(4-fluorobenzyl)-3-methyl-2,4-dioxo-1,3,8-triazaspiro[4.5]decan-8-yl)-3-methyl-1-oxobutan-2-yl)-5-(trifluoromethyl)benzamide]: the IC50 is less than 500 nM.
Consider `COc1ccc(CN2C(=O)N(C)C(=O)C23CCN(C(=O)[C@H](NC(=O)c2cc(C(F)(F)F)ccc2F)C(C)C)CC3)cc1` [Example 91, (R)-2-Fluoro-N-(1-(1-(4-methoxybenzyl)-3-methyl-2,4-dioxo-1,3,8-triazaspiro[4.5]decan-8-yl)-3-methyl-1-oxobutan-2-yl)-5-(trifluoromethyl)benzamide], for which the IC50 is less than 500 nM.
Regarding `CC(C)[C@@H](NC(=O)c1cc(C(F)(F)F)ccc1F)C(=O)N1CCC2(CC1)C(=O)N(C)C(=O)N2C(C)c1ccccc1` (stereo partly drawn) [Example 92, 2-Fluoro-N-((2R)-3-methyl-1-(3-methyl-2,4-dioxo-1-(1-phenylethyl)-1,3,8-triazaspiro[4.5]decan-8-yl)-1-oxobutan-2-yl)-5-(trifluoromethyl)benzamide], the IC50 lay within 500 to 1000 nM.
With `CC(C)[C@@H](NC(=O)c1cc(C(F)(F)F)ccc1F)C(=O)N1CCC2(CC1)C(=O)N(C)C(=O)N2Cc1ccc(S(C)(=O)=O)cc1` [Example 93, (R)-2-Fluoro-N-(3-methyl-1-(3-methyl-1-(4-(methylsulfonyl)benzyl)-2,4-dioxo-1,3,8-triazaspiro[4.5]decan-8-yl)-1-oxobutan-2-yl)-5-(trifluoromethyl)benzamide], the IC50 is not below 1000 nM.
Consider `COc1cc(CN2C(=O)N(C)C(=O)C23CCN(C(=O)[C@H](NC(=O)c2cc(C(F)(F)F)ccc2F)C(C)C)CC3)ccn1` [Example 94, (R)-2-Fluoro-N-(1-(1-((2-methoxypyridin-4-yl)methyl)-3-methyl-2,4-dioxo-1,3,8-triazaspiro[4.5]decan-8-yl)-3-methyl-1-oxobutan-2-yl)-5-(trifluoromethyl)benzamide], for which the IC50 was less than 500 nM.
As to `Cc1cc(CN2C(=O)N(C)C(=O)C23CCN(C(=O)[C@H](NC(=O)c2cc(C(F)(F)F)ccc2F)C(C)C)CC3)ccn1` [Example 95, (R)-2-Fluoro-N-(3-methyl-1-(3-methyl-1-((2-methylpyridin-4-yl)methyl)-2,4-dioxo-1,3,8-triazaspiro[4.5]decan-8-yl)-1-oxobutan-2-yl)-5-(trifluoromethyl)benzamide], the IC50 lay within 500 to 1000 nM.
To `CC(C)[C@@H](NC(=O)c1cc(C(F)(F)F)ccc1F)C(=O)N1CCC2(CC1)C(=O)N(C)C(=O)N2Cc1ccc2c(c1)OCCO2` [Example 96, (R)—N-(1-(1-((2,3-Dihydrobenzo[b][1,4]dioxin-6-yl)methyl)-3-methyl-2,4-dioxo-1,3,8-triazaspiro[4.5]decan-8-yl)-3-methyl-1-oxobutan-2-yl)-2-fluoro-5-(trifluoromethyl)benzamide] belongs less than 500 nM.
With `COc1ccc(CN2C(=O)N(C)C(=O)C23CCN(C(=O)[C@H](NC(=O)c2cc(C(F)(F)F)ccc2F)C(C)C)CC3)cn1` [Example 97, (R)-2-Fluoro-N-(1-(1-((6-methoxypyridin-3-yl)methyl)-3-methyl-2,4-dioxo-1,3,8-triazaspiro[4.5]decan-8-yl)-3-methyl-1-oxobutan-2-yl)-5-(trifluoromethyl)benzamide], the concentration for half-maximal inhibition (IC50) is less than 500 nM.
To `CC(C)[C@@H](NC(=O)c1cc(C(F)(F)F)ccc1F)C(=O)N1CCC2(CC1)C(=O)N(C)C(=O)N2Cc1ccc2[nH]ncc2c1` [Example 98, (R)—N-(1-(1-((1H-Indazol-5-yl)methyl)-3-methyl-2,4-dioxo-1,3,8-triazaspiro[4.5]decan-8-yl)-3-methyl-1-oxobutan-2-yl)-2-fluoro-5-(trifluoromethyl)benzamide] belongs less than 500 nM.
